Measured values reported in US5856115A, “Assay for identification therapeutic agents” (priority 1994, dated 1999).

Columns and labels:
[1] = tested on: Human glomerular mesangial cells stimulated with IL-1; assay: Invention assay: HPLC of lipids (PA, DAG) from mesangial cells stimulated with IL-1; assay type: cell-based
Description: The compounds of Formula I are shown to modulate the effects of primary stimuli which elevate levels of the relevant subspecies of PA and DAG using the assay system of the invention. In general for the assay, the cells to be tested are first incubated with the primary stimulating agent for various time periods and fixed in ice-cold methanol. The lipids are extracted using, for example, chloroform:methanol 2:1 (v/v), and the extracts are then subjected to HPLC as described by Bursten and Harris, Biochemistry (1991). In this method, a Rainin mu-Porasil column is used with a 3:4 hexane:propanol organic carrier and a 1-10% water gradient during the first 10 minutes of separation. Detection of the peaks in the elution pattern is by absorption in the range of ultraviolet which detects isolated double bonds. Thus, the relevant peaks of unsaturated PA and DAG are shown in the elution pattern. It is important to note that the assay method permits discrimination between various forms of PA and DAG so that those relevant to the pathway affected by the compounds of Formula I can be measured directly. Confirmation of the nature of the acyl substituents of these components is accomplished using fast-atom bombardment mass spectroscopy. Thus, the relevant unsaturated (non-arachidonic) PA and DAG subspecies may be detected. The time periods employed are 5-60 seconds after stimulation with the primary stimulus, such as a cytokine. This technique permits assessment of the levels of various lipid components as a function of time.
To test the effect of the compounds of the invention, the candidate compound is included in the initial incubation at various concentrations. Fixing, extraction and HPLC are conducted as above. The effect of the candidate compound is then reflected in a lowering of the relevant PA and DAG levels as compared to the cells without candidate in the control as illustrated hereinbelow.
(§1) Human glomerular mesangial cells were incubated with IL-1 for various time periods of 5-60 seconds and the cells were fixed in ice-cold methanol, and the lipids extracted using chloroform:methanol 2:1 (v/v). It is very important that the fixing/extraction process be conducted quickly so that the decomposition of unstable intermediates is halted.
(§2) The extracts were subjected to HPLC on a Rainin mu-Porasil column with a 3:4 hexane:propanol organic carrier and a 1-10% water gradient during the first 10 minutes of separation. The relative concentration of each lipid species is determined using absorption at 206 nm (A206), which follows unsaturated acyl content of lipid species. […] The absolute mass of each lipid species is determined by isolation of the lipid using a fraction collector, repurification on the HPLC column. Determination of phospholipid phosphorus is as nmoles/mg cellular protein. Protein concentration is determined using the Bradford technique.
After contacting HMC with 10^-11 M interleukin-1, a marked redistribution of phospholipids and metabolites is apparent within 5 seconds (FIG. 2), including a significant increase in PA and DAG. FIGS. 3 and 4 show the HPLC after stimulation with IL-1 for 15 seconds and 60 seconds, respectively. PA has been converted into DAG by action of phosphatidate phosphohydrolase at 15 seconds; but the PA peak reappears after 60 seconds.
The HMC were also reacted with 10^-11 M IL-1 in the presence of various concentrations of pentoxifylline. […] A large peak representing pentoxifylline is present.

[2] = tested on: lyso-PA acyl transferase (LPAAT); assay: Inhibition of LPAAT shown by the invention assay; assay type: cell-based, human
Description: (§3) This example also illustrates the method of the invention.
as §1, §2
(§4) Thus, the lyso PA that accumulates contains high levels of unsaturated fatty acids. Pentoxifylline in a dose range greater than 500 μM results in inhibition both of phosphatidate phosphohydrolase and of lyso PA acyl transferase.

[3] = tested on: phosphatidic acid phosphohydrolase (PAPH); assay: Inhibition of PAPH shown by the invention assay; assay type: cell-based, human
Description: as §3, §1, §2, §4

[4] = tested on: NIH3T3 cell line (D5C3) transformed with temperature-sensitive v-abl; assay: Blocking transformed phenotype of D5C3 cells; assay type: cell-based, murine
Description: An NIH3T3 cell line ([MUT]) provides target cells which were transformed by an activated oncogene. The cells were transformed with a temperature-sensitive v-abl mutant gene. This mutant gene encodes a temperature-sensitive v-abl protein that produces a non-oncogenic product at a non-permissive temperature due to a lack of tyrosine phosphorylation. The cells were incubated at the permissive temperature (33° C.) for 5 days after passage with and without pentoxifylline (1 mM).

[5] = tested on: patients undergoing allogeneic bone marrow transplant; assay: Preliminary study in allogeneic bone marrow transplant patients; assay type: in vivo, human; details: first 30 days post-transplant
Description: A preliminary study was conducted on patients undergoing allogeneic bone marrow transplant for multiple myeloma, for lymphoid malignancies, or for advanced stage CML or AML. Prednisone is often administered as an immunosuppressant in all experimental groups. In the study, these patients received the drugs for a minimum of 3 days to a maximum of 7 days prior to starting their preparative regimen while in the outpatient department according to the following regimen:
PTX: 600 mg p.o. qid at 9 am, 1 pm, 5 pm and 9 pm;
CIPRO: 500 mg p.o.b.i.d.; and
PD: 0.5 mg/kg b.i.d. (total 1 mg/kg/day changed to methylprednisolone at an equivalent dose starting on day-1).
For the duration of therapy, the patients are continued on the study drugs as follows:
PTX: until day +20 post-transplant then tapered 600 mg/day until off;
CIPRO: until day 30 post-transplant or day of discharge if sooner than day 30; and
PD: tapered starting on day 0 over 14 days until off.
All patients in these studies received PD and cyclosporin as GVHD prophylaxis.

[6] = tested on: recipients of matched allogeneic donor marrow; assay: Matched allogeneic donor trial; assay type: in vivo, human
From the text: (§5) They are given steroids to reduce inflammation. […] In this group of patients, GVHD approaches 90%.
Again, engraftment was improved, toxicity diminished and survival improved as compared either to standard treatment or to treatment with GM-CSF.

[7] = tested on: recipients of marrow from unrelated donors; assay: Unrelated donor trial; assay type: in vivo, human
From the text: as §5
Again, the general results were improved as compared to either standard therapy or GM-CSF.

[8] = tested on: NIH3T3 murine fibroblast cells transformed with a mutated K-ras; assay: Growth and soft agar colonies of K-ras transformed NIH3T3 cells in vitro; assay type: cell-based; details: concentrations at or greater than 0.5 mM
Description: Additionally, NIH3T3 murine fibroblast cells transformed with a mutated K-ras (codon 12 Gly-Val) were tested in vitro and in nude mice.

[9] = tested on: SV40 T-antigen-transformed human kidney mesangial cells; assay: Tritiated thymidine uptake of transformed mesangial cells with rhIL-1 or TNFα; assay type: cell-based
Description: SV40 T-antigen-transformed human kidney mesangial cells were cultured under standard conditions with rhIL-1 or with TNFα with and without pentoxifylline (PTX). Transformed mesangial cells grow independently of added growth factors, but IL-1 and TNFα are the normal proliferative signals for mesangial cells. As was shown in Example 1, when IL-1 is added to kidney mesangial cells, within 30 seconds LPAAT and PAPH are activated; the effect of both of these enzymes is inhibited by pentoxifylline at 1 mM. In this experiment, the growth of the treated cells was measured using tritiated thymidine uptake.

[10] = tested on: human leukemic cell line (Mo7e); assay: GM-CSF stimulated colony formation of Mo7e cells; assay type: cell-based; details: semisolid medium, colonies counted after 10 days
Description: The human leukemic cell line (Mo7e) is dependent on added granulocyte-macrophage colony-stimulating factor (GM-CSF) for growth. Mo7e cells were cultured in semisolid medium with and without pentoxifylline (PTX) and rhGM-CSF. Colonies were counted 10 days after culture initiation under an inverted microscope. […] PTX thus prevents the up-regulation of activation-associated genes which inhibit proliferation.

[11] = tested on: TNFα transcripts in U937 cells; assay: Northern blot of TNFα transcripts in LPS-induced U937 cells; assay type: cell-based; details: 1 mM PTX, LPS three hours
[12] = tested on: IL-6 transcripts in bone marrow stromal cells; assay: Northern blot of IL-6 transcripts in bone marrow stromal cells; assay type: cell-based; details: three-hour exposure, increasing concentrations
[13] = tested on: Steel factor transcripts in marrow stromal cell lines; assay: Northern blot of Steel factor transcripts in marrow stromal cell lines; assay type: cell-based; details: three-hour incubation, passaged or cloned (CDCL) lines
[14] = tested on: CD3-positive lymphocytes; assay: Proliferation and transcripts of anti-CD3 stimulated lymphocytes; assay type: cell-based
Description: In these experiments, freshly isolated, CD2-positive cells were stimulated by a solid-phase monoclonal antibody to acquire a CD3 phenotype, and then PTX was added. […] The block in proliferation could not be overcome by addition of either tumor necrosis factor (FIGS. 20 and 21) or IL-1 (FIG. 21). […] The cytokines and PTX were added at culture inception and the cells were harvested after 5 days.

[15] = tested on: IL-8 mRNA in U937 and THP1; assay: Northern blot of IL-8 mRNA in monocytic cell lines induced by lipopolysaccharide or GM-CSF; assay type: cell-based
Description: The murine fibrosarcoma cell line, L929, was also tested as an indicator for assays of TNF cytotoxicity. Cell growth was assayed by crystal violet staining using optical density as a measure of growth. […] Finally, two monocytic cell lines, U937 and THP1, were used to test the effect of pentoxifylline on the […] of the cytokine IL-8. The cell lines in culture were induced to upregulate IL-8 production by lipopolysaccharide or GM-CSF.

[16] = tested on: T cell proliferation; details: Singer et al., cited from earlier work
[17] = day 0-28, median (mean ± standard deviation)
[18] = days 0-28, median (mean ± standard deviation)
[19] = median (mean ± standard deviation)

In the case of Cc1nc2sccn2c(=O)c1CCN1CCC(=C(c2ccccc2)c2ccc(F)cc2)CC1 [R 50922], the “HPLC pattern (reappearance of PA after 60 seconds)” value ([1]; IL-1 stimulation) is reported as “does not alter”.
With C[C@@H](O)CCCCn1c(=O)c2c(ncn2C)n(C)c1=O [CT1501 R] the “block of lyso-PA AT” value [2] was “blocks” and the “block of Ptd Phydr” value [3] was “blocks”.
In the case of O=C(O)c1cn(C2CC2)c2cc(N3CCNCC3)c(F)cc2c1=O [Ciprofloxacin], the “inhibition of the transformed phenotype” value ([4]; ciprofloxacin 50 μg/ml, pentoxifylline 1 mM) is reported as “significant effect”.
With “GM-CSF: granulocyte-macrophage colony-stimulating factor” the platelet transfusion requirements [5] was 87±69 units of platelets, the “red blood cell requirements” value [5] was 24.7±24 units of RBCs and the “Day 100 Survival” value [6] was 69%. For the same compound, the “Max Creat” value [6, 17] was 1.5 (1.8 ± 1.4) mg/dL, the Units platelets transfused [6, 17] was 74.0 (87 ± 74) units and the “Bili ≥5.0 mg/dL (patients)” value ([6]; days 0-28) was 44%. The “Creat ≥2.0 mg/dL (patients)” value ([6]; days 0-28) was 22%, the “Infection 0-28 (patients with positive bacterial blood cultures)” value ([6]; days 0-28) was 14% and the “Max Bili” value [6, 18] was 5.0 (8 ± 10) mg/dL. The “ANC ≤100 (days below 100 cells/uL)” value [6, 19] was 5.0 (6 ± 4) days, the “ANC ≥100 (day on which ANC ≥100 cells/uL on two consecutive days)” value [6, 19] was 9.0 (8 ± 6) day and the “ANC ≥1,000 (day on which ANC ≥1,000 cells/uL on two consecutive days)” value [6, 19] was 14.0 (16 ± 9) day. The Day discharge [6, 19] was 24.0 (26 ± 13) day, the “Last RBC day (first day RBC count ≥30% for 7 consecutive days untransfused)” value [6, 19] was 59.0 (63 ± 39) day and the Last plt day [6, 19] was 23.0 (17 ± 11) day. The “Max Creat” value [7, 17] was 1.1 (1.4 ± 1.2) mg/dL, the Units platelets transfused [7, 17] was 92.0 (90 ± 42) units and the “Bili ≥5.0 mg/dL (patients)” value ([7]; days 0-28) was 46%. The “Creat ≥2.0 mg/dL (patients)” value ([7]; days 0-28) was 17%, the “Infection 0-28” value ([7]; days 0-28) was 7% and the “Max Bili” value [7, 18] was 5.5 (7 ± 7) mg/dL. For the same compound, the “ANC ≤100 (days below 100 cells/uL)” value [7, 19] was 12 (12 ± 7) days, the “ANC ≥100” value [7, 19] was 18.5 (18 ± 6) day and the “ANC ≥500” value [7, 19] was 22.5 (23 ± 4) day. For the same compound, the “ANC ≥1,000” value [7, 19] was 26.0 (26 ± 5) day, the Day initial discharge [7, 19] was 37.0 (37 ± 14) day and the Last plt day [7, 19] was 24.5 (26 ± 6) day.
With CC(=O)CCCCn1c(=O)c2c(ncn2C)n(C)c1=O [Pentoxifylline] the “elevation of PA and DAG by IL-1” value ([1]; 1 mM, all time points (15-60 seconds)) was “abolishes”, the “cyclical formation of PA, and conversion of PA to DAG” value ([1]; 10^-11 M IL-1, 100 μM pentoxifylline, 15- and 60-second points) was “no change” and the “conversion of PA to DAG” value ([1]; 10^-11 M IL-1, 500 μM pentoxifylline, 15 second time point) was “slight attenuation”. For the same compound, the “elevation in levels of unsaturated, non-arachidonic PA and of the DAG derived from it” value ([1]; IL-1 stimulation, concentrations greater than 500 μM) was “obviate”, the “LPAAT activated by IL-1” value ([2]; 1 mM) was “inhibited” and the “inhibition of lyso PA acyl transferase” value ([2]; dose range greater than 500 μM) was “inhibition”. For the same compound, the “inhibitory effect on LPAAT” value ([2]; relative to 0.5 mM) was “evident only at higher concentrations”, the “PAPH activated by IL-1” value ([3]; 1 mM) was “inhibited” and the “inhibition of phosphatidate phosphohydrolase” value ([3]; dose range greater than 500 μM) was “inhibition”. For the same compound, the appearance of cells ([4]; 1 mM, 33° C., 5 days) was “predominantly non-transformed, fibroblastic appearance”, the growth ([8]; in vitro) was “inhibition of growth” and the anchorage-independent growth ([8]; soft agar) was “suppression”. For the same compound, the “growth stimulated by IL-1” value ([9]; FIG. 13A) was “arrested growth”, the “proliferative effect of TNF” value ([9]; FIG. 13B) was “enhances” and the “GM-CSF-stimulated growth of colonies” value [10] was “enhanced”. For the same compound, the “TNF RNA obtained in response to LPS stimulation” value [11] was “undetectable level”, the “production of IL-6 transcripts” value [12] was “increased production” and the “levels of Steel factor transcripts” value [13] was “increases”. The thymidine uptake ([14]; CD2-positive T-cells, monoclonal antibody 64.1, 5 days, FIG. 21) was “diminished”, the TNF transcripts ([14]; Northern blot, FIG. 19A) was “suppression” and the IL-2 receptor transcripts ([14]; Northern blot, FIG. 19C) was “suppression”. For the same compound, the “synthesis of IL-8 (mRNA)” value [15] was “did not inhibit”, the “expression of cell surface antigens (HLA-DR, CD71, CD25, CD69)” value ([16]; MLR-stimulated lymphocytes) was “decreased” and the “blocking a proliferative response” value ([16]; PTX added after triggering lymphocytes in a mixed lymphocyte culture) was “still effective”.
